Earlier results as cited in patent US20130261032A1, “ADDITIVE FOR SUBTERRANEAN TREATMENT” (SCHLUMBERGER TECHNOLOGY CORPORATION, priority 2012, published 2013).
Like-named read-outs stand apart in the source and are kept apart here.

C[N+](C)(C)CC(=O)[O-] [TMG, trimethyl glycine]
acute oral toxicity, LD50 (oral): greater than 10,000 mg/kg

CCO [ethanol]
acute oral toxicity, LD50 (in vivo, po): 7060 mg/kg

CC(O)CO (stereo not drawn) [propylene glycol]
acute oral toxicity, LD50 (oral): 20,000 mg/kg
